Test results published in patent EP4786485A1, “STRAIGHT CHAIN PEPTIDE COMPOUND AND USE THEREOF” (Shenzhen Zhongge Biological Technology Co., Ltd., priority 2023, dated 2026).
Where a SMILES comes first, the peptide text is derived from it. [ ]: non-standard residue; d: D form. The star is where a group is joined. Biotin = O=C1N[C@H]2[C@H](CS[C@H]2CCCCC(=O)*)N1; Phe(3,4-Cl2) = N[C@@H](Cc1ccc(Cl)c(Cl)c1)C(=O)O; Lys(Me3) = C[N+](C)(C)CCCC[C@H](N)C(=O)O; Phe(4-Me) = Cc1ccc(C[C@H](N)C(=O)O)cc1; Palmitoyl = CCCCCCCCCCCCCCCC(=O)*; Ahp = NCCCCCCC(=O)O

Assays:
Type in all cases: cell-based, Human
Elastin (ELN) = assay: ELISA: effect of increasing the content of Elastin in fibroblasts; design: Effect of increasing the content of Elastin in the fibroblasts: unit not given here; conditions: 1 µM; for Effect of increasing the content of Elastin in the fibroblasts: 24 h incubation, ELISA, blank control (BC) 756.52; for increase in the content of Elastin: in words, compared to the BC, 24 h, fibroblasts
Procedure: (§1) B. Effects of increasing the contents of Collagen I (type I collagen), hyaluronic acid (HA), and Elastin (ELN) in fibroblasts
(§2) Test materials: Human-derived fibroblasts (Guangdong BioCell Biotechnology Co., Ltd., Lot No. Fb20081902), DMEM culture medium (Gibco, 23042301, expiration date 230522), PBS (Solarbio, P1010), TGF-β1 (Peprotech, 230504), Collagen I ELISA Kit (Cusabio, B21025824), Elastin ELISA Kit (Abcam, GR3446070-2), HA ELISA Kit (RD, P325066), CO2 incubator (Thermo, 150I), super-clean bench (AIRTECH, SW-CJ-1F), and microplate reader (BioTek, Epoch).
(§3) Test methods: • 1) Inoculation: After cell resuscitation, the cells were inoculated into 6-well plates when the plating rate reached around 60%, and were incubated overnight in an incubator (37°C, 5% CO2). • 2) Formulation of solutions: The linear peptide compounds in the sample groups, and PC2 (Biotinoyl-GHK, [drawing 69] ) and PC3 ( [drawing 70] ) in the positive control group were all at the concentration of 1 µM, and the test substance working solutions were formulated. • 3) Administration: When the cell plating rate in the 6-well plates reached 40% to 60%, administration was performed at 2 mL per well. Three duplicate wells were set for each group. Incubation was performed in an incubator (37°C, 5% CO2) for 24 h. • 4) ELISA assay: The ELISA assays were performed according to the instructions of the respective ELISA kits, with the detection indicators being effect of increasing the content of Collagen I in the fibroblasts, effect of increasing the content of HA in the fibroblasts, and effect of increasing the content of Elastin in the fibroblasts, respectively.

[1] = system: Collagen I (type I collagen); assay: ELISA: effect of increasing the content of Collagen I in fibroblasts; design: Effect of increasing the content of Collagen I in the fibroblasts: unit not given here; conditions: 1 µM, 24 h; for Effect of increasing the content of Collagen I in the fibroblasts: human-derived fibroblasts, ELISA, blank control BC = 35.6; for increase in the content of type I collagen (Collagen I): in words, compared to the BC, fibroblasts
Procedure: as §1, §2, §3

hyaluronic acid (HA) = assay: ELISA: effect of increasing the content of HA in fibroblasts; design: Effect of increasing the content of HA in the fibroblasts: unit not given here; conditions: 1 µM, 24 h; for Effect of increasing the content of HA in the fibroblasts: human-derived fibroblasts, ELISA, blank control BC = 1402.44; for increase in the content of hyaluronic acid (HA): in words, compared to the BC, fibroblasts
Procedure: as §1, §2, §3

| Structure (SMILES) | Effect of increasing the content of Elastin in the fibroblasts (Elastin (ELN)) | increase in the content of Elastin (Elastin (ELN)) | Effect of increasing the content of Collagen I in the fibroblasts [1] | increase in the content of type I collagen (Collagen I) [1] | Effect of increasing the content of HA in the fibroblasts (hyaluronic acid (HA)) | increase in the content of hyaluronic acid (HA) (hyaluronic acid (HA)) |
| --- | --- | --- | --- | --- | --- | --- |
| C[N+](C)(C)CCCC[C@H](NC(=O)CCCC[C@@H]1SC[C@@H]2NC(=O)N[C@@H]21)C(=O)NCCCCCCC(=O)NCC(=O)N[C@@H](Cc1c[nH]cn1)C(=O)N[C@@H](CCCCNC(=O)[C@@H]1CCCN1)C(N)=O [compound 265] (Biotin-[Lys(Me3)][Ahp]GHK(Pro)-NH2) | 1008.26 | significant increase | 56.34 | significant increase |  |  |
| CNC(=O)CNC(=O)[C@H](Cc1c[nH]cn1)NC(=O)[C@H](CCCCN)NC(=O)[C@@H]1CCCN1C(=O)[C@@H]1CCCN1C(=O)[C@@H]1CCCN1C(C)=O [compound 286] (Ac-PPPKHG-NHMe) | 1096.59 | significant increase | 53.24 | significant increase | 2791.21 | significant increase |
| CCCCCCCCCCCCCCCC(=O)N1CCC[C@H]1C(=O)N1CCC[C@H]1C(=O)N1CCC[C@H]1C(=O)NCC(=O)N[C@@H](Cc1c[nH]cn1)C(=O)N[C@@H](CCCCN)C(=O)O [compound 294] (Palmitoyl-PPPGHK-OH) | 1037.26 | significant increase | 91.47 | significant increase | 1761.46 | significant increase |
| NCCCC[C@H](NC(=O)[C@H](Cc1c[nH]cn1)NC(=O)CNC(=O)[C@@H]1CCCN1C(=O)[C@@H]1CCCN1C(=O)[C@@H]1CCCN1C(=O)CCCC[C@@H]1SC[C@@H]2NC(=O)N[C@@H]21)C(N)=O [compound 296] (Biotin-PPPGHK-NH2) | 930.98 | significant increase | 88.1 | significant increase | 1686.42 | significant increase |
| CNC(=O)[C@H](Cc1ccc(C)cc1)NC(=O)[C@H](C)NC(=O)[C@H](CCCCN)NC(=O)[C@H](Cc1c[nH]cn1)NC(=O)CNC(=O)[C@H](CCCC[N+](C)(C)C)NC(C)=O [compound 337] (Ac-[Lys(Me3)]GHKA[Phe(4-Me)]-NHMe) | 1320.95 | significant increase | 95.66 | significant increase | 2421.21 | significant increase |
| CNC(=O)[C@H](Cc1ccc(Cl)c(Cl)c1)NC(=O)[C@H](C)NC(=O)[C@H](CCCCN)NC(=O)[C@H](Cc1c[nH]cn1)NC(=O)CNC(=O)[C@H](CCCC[N+](C)(C)C)NC(C)=O [compound 338] (Ac-[Lys(Me3)]GHKA[Phe(3,4-Cl2)]-NHMe) | 1060.72 | significant increase | 89.07 | significant increase | 1913.07 | significant increase |
| C[C@H](NC(=O)[C@H](Cc1ccc(Cl)c(Cl)c1)NC(=O)CCCC[C@@H]1SC[C@@H]2NC(=O)N[C@@H]21)C(=O)N[C@@H](CCCCN)C(=O)N[C@@H](Cc1c[nH]cn1)C(=O)NCC(=O)N[C@@H](CCCC[N+](C)(C)C)C(N)=O [compound 419] (Biotin-[Phe(3,4-Cl2)]AKHG[Lys(Me3)]-NH2) | 1015.58 | significant increase | 109.96 | significant increase |  |  |
| CCCCCCCCCCCCCCCC(=O)N[C@@H](CCCC[N+](C)(C)C)C(=O)NCC(=O)N[C@@H](Cc1c[nH]cn1)C(=O)N[C@@H](CCCCN)C(=O)N[C@@H](C)C(=O)N[C@@H](Cc1ccc(C)cc1)C(=O)O [compound 424] (Palmitoyl-[Lys(Me3)]GHKA[Phe(4-Me)]-OH) | 897.36 | significant increase | 97.9 | significant increase |  |  |
